From patent US20220380371A1, “MLL1 INHIBITORS AND ANTI-CANCER AGENTS” (NOVARTIS AG, priority 2019, published 2022)
Read-outs that look alike come from different tables or passages of the source.

Key:
[1] = biological target: wild type MLL1 four-member complex (MLL1-4C) (Homo sapiens, UniProt Q03164); experiment: MLL1 LC-MS Assay; type: biochemical
In short: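 Compound pre-incubated 20 min with MLL1-4C and SAM, then H3[1-21]-biotin (H3K4me0) substrate added; final 30 nM enzyme, 2.5 μM SAM, 10 μM peptide in Tris pH 8.0 with MgCl2, DTT, Tween 20, BSA. After 120 min at rt, TFA-quenched SAH quantified by LC-MS/MS with d4-SAH; IC50 from dose-response fit.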

[2] = biological target: wild type MLL1 five-member complex (MLL1-5C) (Homo sapiens, UniProt Q03164); experiment: MLL1 Flashplate Assay; type: biochemical; settings: read-out: MLL1 flash plate
Procedure: MLL1 Flashplate Assay To assess the compound potency in MLL1 Flashplate assay, compounds were serially diluted 3-fold in DMSO to obtain a total of twelve concentrations. Then the test compounds at each concentration (250 nL of each) were transferred by Mosquito into Corning #3675 384-well plate. Solutions (15 μL) of 4.2 nM wild type MLL1 five-member complex (MLL1-5C) in the assay buffer (20 mM Tris-HCl, pH 8.0, 0.01% Tween 20, 1 mM DTT, 0.01% BSA) were added to the wells. A 10 μL solution of 2.5 μM of the peptide substrate H3K4me0 (histone H3[1-21]-Biotin) and 1.25 μM ^3H-SAM in the reaction buffer was then added to initiate each reaction. The final components in the reaction solution include 2.5 nM MLL1-5C, 0.5 μM ^3H-SAM, and 1 μM H3K4me0 with varying concentration of the compounds. A positive control consisted of 2.5 nM MLL1-5C, 0.5 μM ^3H-SAM, and 1 μM substrate in the absence of the test compound, and a negative control consisted of 0.5 μM ^3H-SAM, and 1 μM substrate only. Each reaction was incubated at rt for 90 min, then stopped by addition of 5 μL per of quench solution (0.5 mM SAM in assay buffer). 25 μL of each reaction solution was transferred to FlashPlate streptavidin 384-well microplate (PerkinElmer). After at least 1 h incubation at rt, the wells were washed three times with 0.1% Tween-20 in dH2O using the BioTek plate washer. The plates were then read in MicroBeta (PerkinElmer). The radioactive readouts were then normalized based on the values coming from the positive and negative controls to give percent enzyme activities. The data were then fit to a dose response equation using the program Helios to get the IC50 values of the test compounds.

[3] = system: H3K4me3 in MV4-11 cells; experiment: MV4-11 H3K4me3 Cellular ELISA Assay; type: cell-based
In short: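 MV4-11 cells were treated for 48 h with 12-point 1:3 compound dilutions (from 10 mM stock), then histones were acid-extracted with 0.5M HCl and neutralized. H3K4me3 and total H3 were measured by HRP chemiluminescent ELISA, and inhibition versus DMSO after H3 normalization was curve-fitted for IC50.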

[4] = system: MV4-11 cells; experiment: MV4-11 6-Day Cell Growth CTG (CellTiter-Glo) Assay; type: cell-based; settings: MV4-11 cell growth CellTiter-Glo, 6 days
In short: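 MV4-11 AML cells (RPMI 1640, 10% FBS) seeded at 300 cells/well and exposed for 6 days at 37 °C to a 12-point, 1:3 compound series starting at 50 μM final. Viable cells read by CellTiter-Glo luminescence; percent inhibition versus DMSO-only wells fitted to dose-response curves for IC50.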

Row | SMILES | IC50 ([1]; read-out: LCMS) | IC50 [2] | IC50 ([3]; 48 hours) | IC50 [4] | IC50 ([3]; Homo sapiens, MV4-11, 48 h) | IC50 ([4]; Homo sapiens, MV4-11, 144 h) | IC50 ([1]; read-out: MLL1 LCMS)
1 | Nc1ncnc2c1ncn2Cc1c(Br)cc(Cl)cc1N1CC[C@](N)(CO)C1 (stereo in doubt) [Example 107] | > 100 nM | > 100 nM | > 3000 nM | < 2000 nM |  |  | 
2 | Nc1ncnc2c1ncn2Cc1c(Br)cc(Cl)cc1N1CC[C@](N)(C(=O)NC2CC2)C1 [Example 1, (R)-3-amino-1-(2-((6-amino-9H-purin-9-yl)methyl)-3-bromo-5-chlorophenyl)-N-cyclopropylpyrrolidine-3-carboxamide] | < 50 nM | < 60 nM |  |  | < 1900 nM | 2000 to 3000 nM | 
3 | CCc1cc(Cl)cc(N2CC[C@](N)(C(=O)NC3CC3)C2)c1Cn1cnc2c(N)ncnc21 [Example 2, (R)-3-amino-1-(2-((6-amino-9H-purin-9-yl)methyl)-5-chloro-3-ethylphenyl)-N-cyclopropylpyrrolidine-3-carboxamide] | < 50 nM | < 60 nM |  |  | < 1900 nM | < 2000 nM | 
4 | Nc1ncnc2c1ncn2Cc1c(-c2ccc3c(c2)CCO3)cc(Cl)cc1N1CC[C@](N)(C(=O)NC2CC2)C1 [Example 3] | > 100 nM | > 100 nM |  |  | > 3000 nM | > 3000 nM | 
5 | N#Cc1c(F)ccc(N2CC[C@](N)(C(=O)NC3CC3)C2)c1Cn1cnc2c(N)ncnc21 [Example 4] | > 100 nM | > 100 nM |  |  | 1900 to 3000 nM | > 3000 nM | 
6 | Nc1ncnc2c1ncn2Cc1c(N2CC[C@](N)(CCc3ccccn3)C2)ccc(F)c1C(F)(F)F [Example 28] | > 100 nM | > 100 nM |  |  | > 3000 nM |  | 
7 | CN(C)Cc1c(F)cc(Cl)c(N2CC[C@](N)(C(=O)NC3CC3)C2)c1Cn1cnc2c(N)ncnc21 [Example 72, (R)-3-amino-1-(2-((6-amino-9H-purin-9-yl)methyl)-6-chloro-3-((dimethylamino)methyl)-4-fluorophenyl)-N-cyclopropylpyrrolidine-3-carboxamide] | > 100 nM | > 100 nM |  |  | > 3000 nM |  | 
8 | Nc1ncnc2c1ncn2Cc1c(CN2CCOCC2)c(F)cc(Cl)c1N1CC[C@](N)(C(=O)NC2CC2)C1 [Example 75] | 50 to 100 nM | > 100 nM |  |  | > 3000 nM |  | 
9 | Cn1nnnc1[C@@]1(N)CCN(c2cc(Cl)cc(Br)c2Cn2cnc3c(N)ncnc32)C1 [Example 90, (R)-9-(2-(3-amino-3-(1-methyl-1H-tetrazol-5-yl)pyrrolidin-1-yl)-6-bromo-4-chlorobenzyl)-9H-purin-6-amine] | < 50 nM | > 100 nM |  |  | > 3000 nM |  | 
10 | CC1(C)Cc2ccc(N3CC[C@](N)(C(=O)NC4CC4)C3)c(Cn3cnc4c(N)ncnc43)c2O1 [Example 114] | > 100 nM | > 100 nM |  |  | > 3000 nM |  | 
11 | Nc1ncnc2c1ncn2Cc1c(Br)cc2c(c1N1CCC(N)(C(=O)NC3CC3)C1)CCO2 (centres unmarked) [Example 115] | 50 to 100 nM | < 60 nM |  |  | > 3000 nM |  | 
12 | Nc1ncnc2c1ncn2Cc1c(N2CC[C@](N)(C(=O)NCCc3c[nH]cn3)C2)ccc(F)c1C(F)(F)F [Example 121] | < 50 nM |  |  |  | < 1900 nM | < 2000 nM | 
13 | Nc1ncnc2c1ncn2Cc1c(N2CC[C@](N)(C(=O)NCC3CC3(F)F)C2)ccc(F)c1C(F)(F)F (some centres unmarked) [Example 122] | < 50 nM |  |  |  | < 1900 nM | < 2000 nM | 
14 | C[C@@H](NC(=O)[C@@]1(N)CCN(c2ccc(F)c(C(F)(F)F)c2Cn2cnc3c(N)ncnc32)C1)C1CCOCC1 [Example 124] | 50 to 100 nM |  |  |  | < 1900 nM | < 2000 nM | 
15 | Nc1ncnc2c1ncn2Cc1c(N2CC[C@](N)(C(=O)NC3CC34CCOCC4)C2)ccc(F)c1C(F)(F)F (some centres unmarked) [Example 126] | 50 to 100 nM |  |  |  | < 1900 nM | < 2000 nM | 
16 | Nc1ncnc2c1ncn2Cc1c(N2CC[C@](N)(C(=O)NC3CCOC3)C2)ccc(F)c1C(F)(F)F (some centres unmarked) [Example 129] | < 50 nM |  |  |  | < 1900 nM | < 2000 nM | 
17 | COC1CC2(C1)CC2NC(=O)[C@@]1(N)CCN(c2ccc(F)c(C(F)(F)F)c2Cn2cnc3c(N)ncnc32)C1 (some centres unmarked) [Example 130] | < 50 nM |  |  |  | < 1900 nM | < 2000 nM | 
18 | Nc1ncnc2c1ncn2Cc1c(N2CC[C@](N)(C(=O)N3CCn4nccc4C3)C2)ccc(F)c1C(F)(F)F [Example 137] | 50 to 100 nM |  |  |  | < 1900 nM | 2000 to 3000 nM | 
19 | CCCNC(=O)CCNC(=O)[C@@]1(N)CCN(c2ccc(F)c(C(F)(F)F)c2Cn2cnc3c(N)ncnc32)C1 [Example 139] | 50 to 100 nM |  |  |  | < 1900 nM | < 2000 nM | 
20 | Nc1ncnc2c1ncn2Cc1c(N2CC[C@](N)(c3nnn[nH]3)C2)ccc(Cl)c1I [Example 156] |  |  |  |  | < 1900 nM | < 2000 nM | 50 to 100 nM
21 | Nc1ncnc2c1ncn2Cc1c(N2CC[C@](N)(C(=O)NC3CC3)C2)ccc(F)c1C1CCCC1 [Example 158] |  |  |  |  | < 1900 nM | < 2000 nM | < 50 nM
22 | [2H]C([2H])([2H])C([2H])([2H])NC(=O)[C@@]1(N)CCN(c2cc(Cl)cc(Br)c2Cn2cnc3c(N)ncnc32)C1 [Example 159] |  |  |  |  | < 1900 nM | 2000 to 3000 nM | < 50 nM
23 | Nc1ncnc2c1ncn2Cc1c(N2CCC(N)(C(=O)NC3CC3)C2)ccc(C(F)(F)F)c1Cl (centres unmarked) [Example 160] |  |  |  |  | < 1900 nM | < 2000 nM | 50 to 100 nM
24 | CCc1cc(Cl)cc(N2CC[C@](N)(C(=O)NC(C)C)C2)c1Cn1cnc2c(N)ncnc21 [Example 161] |  |  |  |  | < 1900 nM | < 2000 nM | < 50 nM
25 | COCc1c(Cl)cc(Cl)c(N2CC[C@](N)(C(=O)NC3CC3)C2)c1Cn1cnc2c(N)ncnc21 [Example 162] |  |  |  |  | < 1900 nM | 2000 to 3000 nM | 50 to 100 nM
26 | C=Cc1c(Cl)ccc(N2CC[C@](N)(C(=O)NC3CC3)C2)c1Cn1cnc2c(N)ncnc21 [Example 163] |  |  |  |  | < 1900 nM | < 2000 nM | < 50 nM
27 | Nc1ncnc2c1ncn2Cc1c(Cl)cccc1N1CCC(N)(C(=O)NC2CC2)C1 (centres unmarked) [Example 164] |  |  |  |  | < 1900 nM | < 2000 nM | 50 to 100 nM
28 | CCc1c(Cl)ccc(N2CC[C@](N)(C(=O)NC3CC3)C2)c1Cn1cnc2c(N)ncnc21 [Example 165] |  |  |  |  | < 1900 nM | < 2000 nM | 50 to 100 nM
29 | COc1ccc(N2CC[C@](N)(C(=O)NC3CC3)C2)c(Cn2cnc3c(N)ncnc32)c1Br [Example 168] |  |  |  |  | < 1900 nM | < 2000 nM | 50 to 100 nM
30 | CCc1cccc(N2CC[C@](N)(C(=O)NC3CCCC3)C2)c1Cn1cnc2c(N)ncnc21 [Example 169] |  |  |  |  | < 1900 nM | < 2000 nM | 50 to 100 nM
